According to patent US20190002492A1, “DERIVATIVES OF ALLOPR[…] OF EPIALLOPR[…] USES THEREOF FOR TREATING A NEUROPATHOLOGICAL CONDITION” (UNIVERSITE DE STRASBOURG, priority 2011, published 2019):

How the values were obtained:
[1] = system: SH-SY5Y human neuroblastomas; experiment: MTT assay of cell viability and density: effect on cell proliferation; format: cell-based; set-up: key to Effect on cell proliferation (neural proliferative effect): −: no effect; +: low effect; ++: high effect; +++: very high effect; settings: SH-SY5Y cultures
Method: (§1) The cellular model used to carry out the in vitro experiments is a line of human neuroblastomas called line SH-SY5Y.
(§2) The human neuroblastoma is a cultivated at 37° C. in a humidity saturated atmosphere, under 5% CO2 in a culture medium formed by DMEM with an added 10% (v/v) fetal calf serum, 5% (v/v) horse serum, 2 mM glutamax and 1% (v/v) of the penicillin/streptomycin mixture.
The cellular viability and the density (or number of SH-SY5Y cells/cm^2) were determined using the MTT reduction assay. The MTT technique is a colorimetric test that measures the reduction of the tetrazolium salt (3-[4,5-dimethylthiazol-2-yl]-2,5-diphenyl tetrazolium bromide) in formazan by the succinate dehydrogenase present in the mitochondria of the living cells. The formazan forms blue crystals. Thus, after solubilization of the crystals, the measurement of the absorbance at 595 nm makes it possible to obtain absorbency values directly proportional to the number of viable cells and the cell density in the culture boxes.
The effects of derivatives BR053, BR338, BR297 and BR351 on cell proliferation were evaluated by comparing the number of viable cells and the cell density in the control culture boxes, treated only with the culture medium described in paragraph A1 above, and the culture boxes exposed to the culture medium with the added BR053, BR338, BR297 or BR351 derivatives.

[2] = system: SH-SY5Y human neuroblastomas; experiment: Neuroprotection against cell death caused by oxidizing stress (H2O2), MTT readout; format: cell-based; set-up: key to Neuroprotective effect against cell death caused by oxidizing stress: −: no effect; +: low effect; ++: high effect; +++: very high effect; settings: H2O2 1 mM; for Neuroprotective effect against cell death caused by oxidizing stress: SH-SY5Y cultures, 24 or 48 hours, MTT; for Protection of human neuroblastomas from cell death caused by H2O2 (in words): SH-SY5Y
Method: as §1, §2
The human neuroblastomas were incubated with the culture medium alone or containing the chief inducing agent of oxidizing stress, hydrogen peroxide (H2O2), at various concentrations in order to determine the concentrations of H2O2 and the incubation times causing the death of a significant percentage of the cells. The neuroprotective properties of the BR053, BR338, BR297 and BR351 derivatives were determined by pretreating the SH-SY5Y cells with the culture medium alone or respectively containing the BR053, BR338, BR297 or BR351 derivative. After pretreatment, each of these categories of cells was integrated for 24 hours or 48 hours with the following solutions: (i) culture medium; (ii) culture medium containing only the BR053, BR338, BR297 or BR351 derivative; (iii) culture medium containing only H2O2 at a concentration of 1 mM, which causes a high percentage of cell death; (iv) culture medium containing both H2O2 (1 mM) and one of the BR053, BR338, BR297 or BR351 derivatives.
10 μl of a stock solution of tetrazolium, abbreviated MTT, at 3.6 mM was added in each well and the incubation continued in darkness for 5 h at 37° C. After cell lysis, spectrophotometer measurements at 595 nm were carried out to determine the survival and cell density under each of the conditions described above.

[3] = system: human neuroblastoma cells; experiment: Whole-cell patch-clamp without GABA in the recording pipette (non-GABAergic effects); format: cell-based; settings: GABA not added in the recording pipette
Text: The present Invention relates to derivatives of allopregnanolone or of epipregnanolone that primarily and clearly create a cellular effect that is completely independent of the GABAa receptors. In fact, electrophysiological experiments conducted on human neuroblastoma cells using a Patch-Clamp technique, in a Patch-Clamp whole cell configuration, made it possible to see that when the GABA is not in the pipette, i.e., not introduced, or when the GABAa receptors are not activated, said derivatives were capable of inducing a specific cellular activity.
These experiments were carried out under the same recording conditions as the electrophysiological studies described above (A5), with the exception of the GABA, which was not added into the recording pipette.

[4] = system: Sprague-Dawley rats; experiment: Acetone test of thermal allodynia to cold, painful neuropathy caused by vincristine; format: in vivo, rat; settings: rats with vincristine neuropathy, 4 mg/kg i.p. every 2 days for 2 weeks
Text: Adult male Sprague-Dawley rats weighing between 250 and 300 g were used. They came from the company Janvier (le Genest St. Isle, France). The care and handling of the animals were done in accordance with the guidelines from the Council of the European Community (86/609/EC) and in accordance with the ethical rules of the International Association for the Study of Pain. The protocol used to carry out the in vivo studies was subject to examination and authorization granted to Prof. Mensah-Nyagan's team by the Alsatian Department of the Veterinary Public Health Guide for the Care and Use of Laboratory Animals (Approval number 67-186). The rats were housed under standard conditions with a photoperiod of 12 h day/12 h night, with unlimited food and water. The animals spent one acclimatization week before being integrated into the experimental protocols. Each animal was examined daily to detect any signs of deterioration of its health condition, such as dramatic weight loss, a decrease in appetite during chemotherapy and pharmacological treatment.
Vincristine sulfate (VINC), purchased from Sigma-Aldrich (St. Louis, Mo., USA), was dissolved in a physiological saline solution (NaCl 0.9%) at 0.1 mg/ml and stored at 4° C. The saline solution (NaCl 0.9%) is used as excipient. The VINC is injected daily by intraperitoneal injection (i.p.), in 2 cycles of 5 days separated by 2 days off, at a concentration of 0.1 mg/kg/day. The control animals were injected by i.p. (1 ml/kg) with the excipient using a similar protocol.
The allopregnanolone in the derivatives according to the invention (BR053 and BR297) were diluted in a hydroxypropylcellulose (HPC) solution (0.3%) used as excipient. The curative treatment with allopregnanolone, BR053 or BR297 began 3 days after the vincristine cycles. Each of these compounds (allopregnanolone, BR053 or BR297) was administered by the intraperitoneal route at a dose of 4 mg/kg at a rate of one injection every 2 days. Thus, over the total duration of the in vivo experiments (14 days), each animal received 7 injections of excipient, allopregnanolone, BR053 or BR297, based on its group, at a dose of 4 mg/kg. The animals were sacrificed 24 hours after the last behavioral test (28th day) to remove tissues that will be used for later histology and electrophysiology studies.
The thermal nociceptive sensitivity threshold to cold was measured in rats placed in individual Plexiglas boxes (30×30×25 cm) mounted on a raised mesh support so as to allow access to the sole of the animal's foot. […] Six measurements (3 per foot) were performed with a latency of 5 minutes between each stimulation. The average latency for withdrawal of the feet (in seconds) was calculated by averaging 6 measurements at each studied point in time. […]

| SMILES | Effect on cell proliferation (neural proliferative effect) [1] | Effect on the proliferation of human neuroblastomas (in words) [1] | Neuroprotective effect against cell death caused by oxidizing stress [2] | Protection of human neuroblastomas from cell death caused by H2O2 (in words) [2] | Induction of cellular activity without GABA (non-GABAergic effect) [3] | Effect on thermal allodynia to cold [4] |
| --- | --- | --- | --- | --- | --- | --- |
| C=CCO[C@H]1CC[C@]2(C)C3CC[C@@]4(C)C(CC[C@@H]4C(C)=O)C3CC[C@H]2C1 (stereo partly drawn) [BR297] | − | no effect | ++ | capable of protecting human neuroblastomas from the cell death | capable of inducing cellular activity | eliminates the symptoms |
| CC(=O)[C@H]1CCC2C3CC[C@H]4C[C@@H](O)CC[C@]4(C)C3CC(=O)[C@@]21C (stereo partly drawn) [BR053] | + | low effectiveness | +++ | capable of protecting human neuroblastomas from the cell death | capable of inducing cellular activity | eliminates the symptoms |
